Structures can show the parent of a compound that is named as a salt.

The results in this text go back to US6627630B1, “Condensed pyridazine derivatives, their production and use” (Takeda Chemical Industries, Ltd., priority 1998, dated 2003).

For orientation: melting point means the temperature of the solid-liquid transition.

Turning to `Cc1c(C(C)(C)C(=O)O)nc2ccc(NCCCN3CCC(OC(c4ccccc4)c4ccccc4)CC3)nn12` [Example 138A, 2-[6-[3-[4-(Diphenylmethoxy)piperidino]propylamino]-3-methylimidazo[1,2-b]pyridazin-2-yl]-2-methylpropionic Acid], the melting point is 219 to 220 °C.
In the case of `c1ccc(C(OC2CCN(CCCOc3ccc4ncnn4n3)CC2)c2ccccc2)cc1` (as salt: fumarate) [Example 2A, 6-[3-[4-(Diphenylmethoxy)piperidino]propoxy][1,2,4]triazolo[1,5-b]pyridazine Fumarate] it was 157 to 159 °C.
Under `O=C(CN1CCN(C(c2ccccc2)c2ccccc2)CC1)Nc1ccc2ncnn2n1` [Example 24A, 2-[4-(Diphenylmethyl)-1-piperazinyl]-N-([1,2,4]triazolo[1,5-b]pyridazin-6-yl)acetamide] stands 203 to 204 °C; under `CC(C)OC(=O)c1nc2ccc(OCCCN3CCC(OC(c4ccccc4)c4ccccc4)CC3)nn2n1` [Example 122A, Isopropyl[6-[3-[4-(Diphenylmethoxy)piperidino]propoxy][1,2,4]triazolo[1,5-b]pyridazin-2-yl]carboxylate], 126 to 127 °C; under `c1ccc(C(c2ccccc2)N2CCN(CCCCCCNc3ccc4ncnn4n3)CC2)cc1` [Example 37A, 6-[6-[4-(Diphenylmethyl)-1-piperazinyl]hexylamino][1,2,4]triazolo[1,5-b]pyridazine], 130 to 132 °C.
Under `CC(C)(C)OC(=O)c1nc2ccc(NCCCN3CCC(OC(c4ccccc4)c4ccccc4)CC3)nn2n1` [Example 116A, tert-Butyl[6-[3-[4-(Diphenylmethoxy)piperidino]propylamino][1,2,4]triazolo[1,5-b]pyridazin-2-yl]carboxylate] stands 133 to 135 °C; under `c1ccc(-c2nc3ccc(NCCCN4CCC(OC(c5ccccc5)c5ccccc5)CC4)nn3n2)cc1` [Example 32A, 6-[3-[4-(Diphenylmethoxy)piperidino]propylamino]-2-phenyl[1,2,4]triazolo[1,5-b]pyridazine], 170 to 172 °C; under `CC(C)c1cc2ncnn2nc1SCCCN1CCN(C(c2ccccc2)c2ccccc2)CC1` [Example 9A, 6-[3-[4-(Diphenylmethyl)-1-piperazinyl]propylthio]-7-isopropyl[1,2,4]triazolo[1,5-b]pyridazine], 137 to 139 °C.
`Cc1nc2ccc(NCCCN3CCC(OC(c4ccccc4)c4ccccc4)CC3)nn2c1C(=O)O` [Example 107A, [6-[3-[4-(Diphenylmethoxy)piperidino]propylamino]-2-methylimidazo[1,2-b]pyridazin-3-yl]carboxylic Acid] yielded a melting point of 101 to 103 °C.
In the case of `CC(C)(C(=O)O)c1cn2nc(CCCN3CCN(C(c4ccccc4)c4ccccc4)CC3)ccc2n1` [Example 104A, 2-[6-[3-[4-(Diphenylmethyl)-1-piperazinyl]propyl]imidazo[1,2-b]pyridazin-2-yl]-2-methylpropionic Acid] it was 176 to 178 °C; in that of `c1ccc(C(OC2CCN(CCCCNc3ccc4ncnn4n3)CC2)c2ccccc2)cc1` [Example 12A, 6-[4-[4-(Diphenylmethoxy)piperidino]butylamino][1,2,4]triazolo[1,5-b]pyridazine], 102 to 104 °C.
For `c1ccc(C(OC2CCN(CCNc3ccc4ncnn4n3)CC2)c2ccccc2)cc1` [Example 13A, 6-[2-[4-(Diphenylmethoxy)piperidino]ethylamino][1,2,4]triazolo[1,5-b]pyridazine], the melting point was in the range of 152 to 154 °C.
In the case of `O=C(OCCCOc1ccc2ncnn2n1)C1CC(OC(c2ccccc2)c2ccccc2)CCN1` (stereo not drawn) [Example 27A, 6-[3-[4-(Diphenylmethoxy)piperidino-carbonyloxy]propoxy][1,2,4]triazolo[1,5-b]pyridazine] it was 119 to 120 °C; in that of `CC(C)(C(=O)O)c1cn2nc(NCCCN3CCC(OC(c4ccccc4)c4ccccc4)CC3)ccc2n1.O.O` (hydrate or solvate) [Example 135A, 2-[6-[3-[4-(Diphenylmethoxy)piperidino]propylamino]imidazo[1,2-b]pyridazin-2-yl)-2-methylpropionic Acid Dihydrate], 203 to 205 °C; in that of `CC(C)(C(=O)O)c1cn2nc(CCCCN3CCN(C(c4ccccc4)c4ccccc4)CC3)ccc2n1` [Example 95A, 2-[6-[4-[4-(Diphenylmethyl)-1-piperazinyl]butyl]imidazo[1,2-b]pyridazin-2-yl]-2-methylpropionic Acid], 108 to 110 °C.
In the case of `Cc1cc2nc(C(C)(C)C(=O)O)cn2nc1OCCCN1CCC(OC(c2ccccc2)c2ccccc2)CC1` [Example 89A, 2-[6-[3-[4-(Diphenylmethoxy)piperidino]propoxy]-7-methylimidazo[1,2-b]pyridazin-2-yl]-2-methylpropionic Acid] it was 122 °C; in that of `CCOC(=O)C(C)(C)c1cn2nc(NCCCN3CCC(NC(c4ccccc4)c4ccccc4)CC3)ccc2n1` [Example 108A, Ethyl 2-[6-[3-[4-(Diphenylmethylamino)piperidino]propylamino]imidazo[1,2-b]pyridazin-2-yl]-2-methylpropionate], 115 to 117 °C.
`Cc1cc2ncnn2nc1OCCOCCN1CCC(OC(c2ccccc2)c2ccccc2)CC1` [Example 53A, 6-[2-[2-[4-(Diphenylmethoxy)piperidino]ethoxy]ethoxy]-7-methyl[1,2,4]triazolo[1,5-b]pyridazine] returned a melting point of 80 to 82 °C.
In turn, `O=C(OCCOc1ccc2ncnn2n1)N1CCN(C(c2ccccc2)c2ccccc2)CC1` [Example 26A, 6-[2-[4-(Diphenylmethyl)-1-piperazinyl-carbonyloxy]ethoxy][1,2,4]triazolo[1,5-b]pyridazine] returned a melting point of 157 to 159 °C.
Under `CC(C)c1cc2ncnn2nc1OCCOCCN1CCN(C(c2ccccc2)c2ccccc2)CC1` [Example 61A, 6-[2-[2-[4-(Diphenylmethyl)-1-piperazinyl]ethoxy]ethoxy]-7-isopropyl[1,2,4]triazolo[1,5-b]pyridazine] stands 119 to 120 °C; under `COC(=O)c1nc2ccc(NCCCN3CCC(OC(c4ccccc4)c4ccccc4)CC3)nn2n1` [Example 36A, Methyl 6-[3-[4-(Diphenylmethoxy)piperidino]propylamino][1,2,4]triazolo[1,5-b]pyridazine-2-carboxylate], 93 to 96 °C.
Under `O=C(O)c1nc2ccc(NCCCN3CCC(OC(c4ccccc4)c4ccccc4)CC3)nn2n1` [Example 117A, [6-[3-[4-(Diphenylmethoxy)piperidino]propylamino][1,2,4]triazolo[1,5-b]pyridazin-2-yl]carboxylic Acid] stands 135 to 138 °C; under `CC(C)(CO)c1cn2nc(NCCCN3CCC(OC(c4ccccc4)c4ccccc4)CC3)ccc2n1` [Example 75A, 2-[6-[3-[4-(Diphenylmethoxy)piperidino]propylamino]imidazo[1,2-b]pyridazin-2-yl)-2-methylpropanol], 105 to 108 °C.
Under `c1ccc(C(OC2CCN(CCCCCNc3ccc4ncnn4n3)CC2)c2ccccc2)cc1` [Example 114A, 6-[5-[4-(Diphenylmethoxy)piperidino]pentylamino][1,2,4]triazolo[1,5-b]pyridazine] stands 96 to 98 °C; under `CCOC(=O)CCNC(=O)c1cn2nc(NCCCN3CCC(OC(c4ccccc4)c4ccccc4)CC3)ccc2n1` [Example 112A, N-[6-[3-[4-(Diphenylmethoxy)piperidino]propylamino]imidazo[1,2-b]pyridazine-2-carbonyl]-β-alanine Ethyl Ester], 83 to 86 °C; under `O=C(O)CNC(=O)c1nc2ccc(NCCCN3CCC(OC(c4ccccc4)c4ccccc4)CC3)nn2n1` [Example 125A, N-[6-[3-[4-(Diphenylmethoxy)piperidino]propylamino][1,2,4]triazolo[1,5-b]pyridazine-2-carbonyl]glycine], 256 to 258 °C.
As to `O=C(CCN1CCN(C(c2ccccc2)c2ccccc2)CC1)Nc1ccc2ncnn2n1` [Example 19A, 3-[4-(Diphenylmethyl)-1-piperazinyl]-N-([1,2,4]triazolo[1,5-b]pyridazin-6-yl)propionamide], the melting point was in the range of 176 to 177 °C.
Under `c1ccc(C(OC2CCN(c3ccc4ncnn4n3)CC2)c2ccccc2)cc1` [Example 11A, 6-[4-(Diphenylmethoxy)piperidino][1,2,4]triazolo[1,5-b]pyridazine] stands 137 to 139 °C; under `O=C(CN1CCC(OC(c2ccccc2)c2ccccc2)CC1)Nc1ccc2ncnn2n1` [Example 23A, 2-[4-(Diphenylmethoxy)piperidino]-N-([1,2,4]triazolo[1,5-b]pyridazin-6-yl)acetamide], 158 to 160 °C; under `CC(C)(C(=O)O)c1cn2nc(NCCCN3CCC(OC(c4ccccc4)c4ccccc4)CC3)ccc2n1` [Example 43A, 2-[6-[3-[4-(Diphenylmethoxy)piperidino]propylamino]imidazo[1,2-b]pyridazin-2-yl]-2-methylpropionic Acid], 205 to 206 °C.
Regarding `c1ccc(C(OC2CCN(CCCNc3ccc4ncnn4n3)CC2)c2ccccc2)cc1` [Example 6A, 6-[3-[4-(Diphenylmethoxy)piperidino]propylamino][1,2,4]triazolo[1,5-b]pyridazine], the melting point was 136 to 138 °C.
In the case of `CC(C)(C(=O)O)c1cn2nc(NCCN3CCC(OC(c4ccccc4)c4ccccc4)CC3)ccc2n1` [Example 79A, 2-[6-[2-[4-(Diphenylmethoxy)piperidino]ethylamino]imidazo[1,2-b]pyridazin-2-yl]-2-methylpropionic Acid] it was 194 to 198 °C.
In the case of `CC(C)(C(=O)O)c1nc2ccc(OCCCN3CCN(C(c4ccccc4)c4ccccc4)CC3)nn2c1Cl` [Example 88A, 2-[3-Chloro-6-[3-[4-(diphenylmethyl)-1-piperazinyl]propoxy]imidazo[1,2-b]pyridazin-2-yl]-2-methylpropionic Acid] it was 118 to 121 °C.
